Measurements from US20240208912A1 (Mirati Therapeutics, Inc., priority 2021, published 2024).
Like-named read-outs stand apart in the source and are kept apart here.

Tests used:
PRMT5/MEP50 complex = target: T1, PRMT5/MEP50 complex (Homo sapiens, UniProt O14744); experiment: PRMT5:MEP50 HotSpot Assay (full-length histone H2A substrate, plus and minus MTA); type: biochemical; conditions: IC50 + 2 μM MTA, in the presence of 2 μM MTA
T1 construct: purchased Reaction Biology Corporation
Procedure, shortened: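 Radiometric HotSpot format using recombinant full-length histone H2A as substrate, run with and without MTA. Reactions were stopped and spotted onto filter paper. Tritiated H2A was quantified by scintillation counting.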

[1] = system: HCT116 homozygous MTAP knockout cells; experiment: Proliferation assay (CellTiter-Glo, 10 days) in HCT116 homozygous MTAP knockout cells; type: cell-based; conditions: CellTiter-Glo after 10 days of treatment, read-out: Proliferation IC50 (nM) HCT116 MTAP_KO
Procedure, shortened: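 MTAP-null HCT116 clone made by CRISPR/Cas9 knockout of both alleles, tested beside parental cells. Cells dosed the day after seeding, split 1:10 on day 6 into fresh medium with the same compound level, and read on day 11 by CellTiter-Glo. IC50 taken after 10 days of exposure.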

T1 sequence (O14744 2-637 limits assumed): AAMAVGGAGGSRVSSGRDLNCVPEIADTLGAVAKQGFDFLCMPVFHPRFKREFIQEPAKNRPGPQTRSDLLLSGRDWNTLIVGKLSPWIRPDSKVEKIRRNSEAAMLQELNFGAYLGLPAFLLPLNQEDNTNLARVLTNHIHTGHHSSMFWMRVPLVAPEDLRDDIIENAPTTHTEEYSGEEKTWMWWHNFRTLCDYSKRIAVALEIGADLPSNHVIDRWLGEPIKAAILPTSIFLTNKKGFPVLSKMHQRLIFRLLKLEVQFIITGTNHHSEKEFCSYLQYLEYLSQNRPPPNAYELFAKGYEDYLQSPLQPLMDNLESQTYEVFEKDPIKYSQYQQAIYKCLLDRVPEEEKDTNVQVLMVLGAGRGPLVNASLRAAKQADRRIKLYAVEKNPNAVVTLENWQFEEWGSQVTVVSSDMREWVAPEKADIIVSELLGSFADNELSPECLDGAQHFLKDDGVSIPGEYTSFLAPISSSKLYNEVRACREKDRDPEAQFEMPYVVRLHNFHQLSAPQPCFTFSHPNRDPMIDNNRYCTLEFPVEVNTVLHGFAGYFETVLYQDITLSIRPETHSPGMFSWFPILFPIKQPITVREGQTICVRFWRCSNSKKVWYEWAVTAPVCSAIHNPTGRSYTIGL
T1 sequence (Q9BQA1 2-342 partner limits assumed): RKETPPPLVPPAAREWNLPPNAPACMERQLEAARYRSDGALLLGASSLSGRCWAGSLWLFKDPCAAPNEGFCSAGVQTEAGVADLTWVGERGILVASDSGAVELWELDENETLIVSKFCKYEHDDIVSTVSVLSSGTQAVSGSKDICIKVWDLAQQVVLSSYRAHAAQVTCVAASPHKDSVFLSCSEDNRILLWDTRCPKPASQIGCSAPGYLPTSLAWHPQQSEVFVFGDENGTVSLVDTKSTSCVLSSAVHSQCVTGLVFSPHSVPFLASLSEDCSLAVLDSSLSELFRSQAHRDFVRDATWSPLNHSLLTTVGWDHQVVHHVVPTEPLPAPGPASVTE

SMILES	IC50 (PRMT5/MEP50 complex) [nM]	IC50 ([1]; Homo sapiens, HCT-116, 240 h) [nM]	IC50 [1] [nM]
Cn1ncc(-c2cc(O)c3c(=O)[nH]nc(CN)c3c2)c1-c1sc2ccccc2c1C#N [Example 15-6, 2-(4-(4-(aminomethyl)-8-hydroxy-1-oxo-1,2-dihydrophthalazin-6-yl)-1-methyl-1H-pyrazol-5-yl)benzo[b]thiophene-3-carbonitrile]	235	138	
Cn1ncc(-c2ccc3c(=O)[nH]nc(CN)c3c2)c1-c1c(C#N)c(OC2CC2)c2ccccc2c1Cl (single isomer, unassigned) [Example 16-24, (M)-3-[4-[4-(aminomethyl)-1-oxo-2H-phthalazin-6-yl]-2-methyl-pyrazol-3-yl]-4-chloro-1-(cyclopropoxy)naphthalene-2-carbonitrile]	37.2		61
Cn1ncc(-c2ccc3c(=O)[nH]nc(CN)c3c2)c1-c1c(C#N)ccc2c1COC2 (single isomer, unassigned) [Example 16-69, (M)-4-[4-[4-(aminomethyl)-1-oxo-2H-phthalazin-6-yl]-2-methyl-pyrazol-3-yl]-1,3-dihydroisobenzofuran-5-carbonitrile]	6540		10200
Cn1ncc(-c2cc(Cl)c3c(=O)[nH]nc(CN)c3c2)c1-c1c(F)c(Cl)cc(OC2CC2)c1C#N (single isomer, unassigned) [Example 16-27, (P)-2-[4-[4-(aminomethyl)-8-chloro-1-oxo-2H-phthalazin-6-yl]-2-methyl-pyrazol-3-yl]-4-chloro-6-(cyclopropoxy)-3-fluoro-benzonitrile]	2230		321
Cc1cnc2c(C#N)c(-c3c(-c4ccc5c(=O)[nH]nc(CN)c5c4)cnn3C)c(F)c(C)c2c1 (atropisomer, axis not shown; (P)) [Example 16-93, (P)-7-(4-(4-(aminomethyl)-1-oxo-1,2-dihydrophthalazin-6-yl)-1-methyl-1H-pyrazol-5-yl)-6-fluoro-3,5-dimethylquinoline-8-carbonitrile]	821		3290
Cn1ncc(-c2cc(Cl)c3c(=O)[nH]nc(CN)c3c2)c1-c1c(F)c(Cl)c2ccccc2c1C#N (single isomer, unassigned) [Example 16-57, (P)-2-[4-[4-(aminomethyl)-8-chloro-1-oxo-2H-phthalazin-6-yl]-2-methyl-pyrazol-3-yl]-4-chloro-3-fluoro-naphthalene-1-carbonitrile]	253		339
Cn1ncc(-c2ccc3c(=O)[nH]nc(CN)c3c2)c1-c1c(C#N)cc2ncccc2c1F (single isomer, unassigned) [Example 16-91, (P)-6-[4-[4-(aminomethyl)-1-oxo-2H-phthalazin-6-yl]-2-methyl-pyrazol-3-yl]-5-fluoro-quinoline-7-carbonitrile]	454		2670
CCOc1cc(-c2cnn(C)c2-c2c(F)c(C)c3cc(Cl)cnc3c2C#N)cc2c(CN)n[nH]c(=O)c12 (single isomer, unassigned) [Example 16-99, (P)-7-(4-(4-(aminomethyl)-8-ethoxy-1-oxo-1,2-dihydrophthalazin-6-yl)-1-methyl-1H-pyrazol-5-yl)-3-chloro-6-fluoro-5-methylquinoline-8-carbonitrile]	9870	10000	
Cn1ncc(-c2ccc3c(=O)[nH]nc(CN)c3c2)c1-c1sc2cc(Cl)ccc2c1C#N [Example 4-270, 2-(4-(4-(aminomethyl)-1-oxo-1,2-dihydrophthalazin-6-yl)-1-methyl-1H-pyrazol-5-yl)-6-chlorobenzo-[b]thiophene-3-carbonitrile]	102	400	
Cn1ncc(-c2ccc3c(=O)[nH]nc(CN)c3c2)c1-c1c(F)c(Cl)c2c(c1C#N)OCCC2 (single isomer, unassigned) [Example 16-39, (P)-7-(4-(4-(aminomethyl)-1-oxo-1,2-dihydrophthalazin-6-yl)-1-methyl-1H-pyrazol-5-yl)-5-chloro-6-fluorochroman-8-carbonitrile]	366		517
COc1cccc2c(C#N)c(-c3c(-c4ccc5c(=O)[nH]nc(CN)c5c4)cnn3C)sc12 [Example 4-268, 2-[4-[4-(aminomethyl)-1-oxo-2H-phthalazin-6-yl]-2-methyl-pyrazol-3-yl]-7-methoxy-benzothiophene-3-carbonitrile]	165	201	
Cn1ncc(-c2cc(Cl)c3c(=O)[nH]nc(CN)c3c2)c1-c1c(F)cc2ncc(Cl)cc2c1C#N (single isomer, unassigned) [Example 16-62, (M)-6-[4-[4-(aminomethyl)-8-chloro-1-oxo-2H-phthalazin-6-yl]-2-methyl-pyrazol-3-yl]-3-chloro-7-fluoro-quinoline-5-carbonitrile]	28.7		7
Cn1ncc(-c2cc(Cl)c3c(=O)[nH]nc(CN)c3c2)c1-c1c(F)c(Cl)cc(OC2CC2)c1C#N (single isomer, unassigned) [Example 16-28, (M)-2-[4-[4-(aminomethyl)-8-chloro-1-oxo-2H-phthalazin-6-yl]-2-methyl-pyrazol-3-yl]-4-chloro-6-(cyclopropoxy)-3-fluoro-benzonitrile]	81		10
CCOc1cc(-c2cnn(C)c2-c2c(F)c(C)c3ccccc3c2C#N)cc2c(CN)n[nH]c(=O)c12 (single isomer, unassigned) [Example 16-81, (P)-2-[4-[4-(aminomethyl)-8-ethoxy-1-oxo-2H-phthalazin-6-yl]-2-methyl-pyrazol-3-yl]-3-fluoro-4-methyl-naphthalene-1-carbonitrile]	42.1	9	
CCn1ncc(-c2ccc3c(=O)[nH]nc(CN)c3c2)c1-c1sc2ccccc2c1C#N [Example 19-1, 2-[4-[4-(aminomethyl)-1-oxo-2H-phthalazin-6-yl]-2-ethyl-pyrazol-3-yl]benzothiophene-3-carbonitrile]	146	587	
Cn1ncc(-c2ccc3c(=O)[nH]nc(CN)c3c2)c1-c1sc2cnccc2c1C#N [Example 4-273, 2-[4-[4-(aminomethyl)-1-oxo-2H-phthalazin-6-yl]-2-methyl-pyrazol-3-yl]thieno[2,3-c]pyridine-3-carbonitrile]	376	1440	
Cn1ncc(-c2ccc3c(=O)[nH]nc(CN)c3c2)c1-c1c(C#N)c(OC2CC2)c2ccccc2c1Cl (single isomer, unassigned) [Example 16-23, (P)-3-[4-[4-(aminomethyl)-1-oxo-2H-phthalazin-6-yl]-2-methyl-pyrazol-3-yl]-4-chloro-1-(cyclopropoxy)naphthalene-2-carbonitrile]	485		538
CCOc1cc(-c2cnn(C)c2-c2c(F)c(Cl)cc(OC3CC3)c2C#N)cc2c(CN)n[nH]c(=O)c12 (single isomer, unassigned) [Example 16-77, (P)-2-[4-[4-(aminomethyl)-8-ethoxy-1-oxo-2H-phthalazin-6-yl]-2-methyl-pyrazol-3-yl]-4-chloro-6-(cyclopropoxy)-3-fluoro-benzonitrile]	4100		264
Cc1c(F)c(-c2c(-c3cc(C)c4c(=O)[nH]nc(CN)c4c3)cnn2C)c(C#N)c2ncc(Cl)cc12 (single isomer, unassigned) [Example 16-95, (P)-7-(4-(4-(aminomethyl)-8-methyl-1-oxo-1,2-dihydrophthalazin-6-yl)-1-methyl-1H-pyrazol-5-yl)-3-chloro-6-fluoro-5-methylquinoline-8-carbonitrile]	800	1230	
Cn1ncc(-c2ccc3c(=O)[nH]nc(C4(N)CC4)c3c2)c1-c1sc2ccccc2c1C#N [Example 9-8, 2-(4-(4-(1-aminocyclopropyl)-1-oxo-1,2-dihydrophthalazin-6-yl)-1-methyl-1H-pyrazol-5-yl)benzo[b]thiophene-3-carbonitrile]	> 10000	10000	
Cn1ncc(-c2ccc3c(=O)[nH]nc(C4CNC4)c3c2)c1-c1sc2ccccc2c1C#N [Example 9-12, 2-[4-[4-(azetidin-3-yl)-1-oxo-2H-phthalazin-6-yl]-2-methyl-pyrazol-3-yl]benzothiophene-3-carbonitrile]	4250	10000	
CCOc1cc(-c2cnn(C)c2-c2c(F)c(C)cc(OC3CC3)c2C#N)cc2c(CN)n[nH]c(=O)c12 (single isomer, unassigned) [Example 16-75, (P)-2-[4-[4-(aminomethyl)-8-ethoxy-1-oxo-2H-phthalazin-6-yl]-2-methyl-pyrazol-3-yl]-6-(cyclopropoxy)-3-fluoro-4-methyl-benzonitrile]	5030		420
Cn1ncc(-c2cc(Cl)c3c(=O)[nH]nc(CN)c3c2)c1-c1c(F)c(Cl)c2ccccc2c1C#N (single isomer, unassigned) [Example 16-58, (M)-2-[4-[4-(aminomethyl)-8-chloro-1-oxo-2H-phthalazin-6-yl]-2-methyl-pyrazol-3-yl]-4-chloro-3-fluoro-naphthalene-1-carbonitrile]	4.61		15
Cn1ncc(-c2ccc3c(=O)[nH]c4c(c3c2)CCNC4)c1-c1sc2ccccc2c1C#N [Example 18-1, 2-(1-methyl-4-(6-oxo-1,2,3,4,5,6-hexahydrobenzo[c][1,7]naphthyridin-9-yl)-1H-pyrazol-5-yl)benzo[b]thiophene-3-carbonitrile]	> 10000	4140	
C[C@@H]1C[C@H]1Oc1ccc(F)c(-c2c(-c3ccc4c(=O)[nH]nc(CN)c4c3)cnn2C)c1C#N (atropisomer, axis not shown; (P)) [Example 16-65, (P)-2-(4-(4-(aminomethyl)-1-oxo-1,2-dihydrophthalazin-6-yl)-1-methyl-1H-pyrazol-5-yl)-3-fluoro-6-((1R,2R)-2-methylcyclopropoxy)benzonitrile]	204		187
